Data taken from PMC11785708, “Design and synthesis of new quinazolinone derivatives: investigation of antimicrobial and biofilm inhibition effects” (Molecular Diversity, 2024).
≈ marks a conversion by molar mass, not a printed value.

Tests used:
B. cereus ATCC 6629 [1] = assay: MIC determination, B. cereus; format: cell-based, Bacillus cereus; conditions: serial dilutions, triplicate
Procedure: (§1) Serial dilutions of the test compounds were tested to determine their MIC against the most susceptible organisms. The MIC was expressed as the lowest concentration which inhibited the visible growth of the corresponding microorganism. All assays were performed in triplicate.

B. subtilis ATCC 6633 [2] = assay: Agar well diffusion, B. subtilis; format: cell-based; conditions: Bacillus subtilis, ATCC6633; 100 μl of test compound 20 mg/ml in DMF; ciprofloxacin and fluconazole 30 μg/ml; 24 h; mean ± SD; read-out: diameters of inhibition zone, B. subtilis ATCC 6633
Procedure: (§2) The antimicrobial activity was tested against Gram positive bacteria: Bacillus cereus (B. cereus ATCC 6629), Bacillus subtilis (B. subtilis ATCC 6633), Staphylococcus aureus (S. aureus ATCC 6538), Gram negative bacteria: Klebsiella pneumoniae (K. pneumoniae ATCC 13883), Pseudomonas aeruginosa (P. aeruginosa ATCC 27953) and Candida albicans (C. albicans ATCC 10231). Glycerol stocks were thawed upon need and propagated into nutrient broth at 37 °C. The antibacterial activity of the compounds 9-32 was carried out in vitro using the agar well diffusion method, originally reported by […] and Bauer and coworkers and described by the National Committee for Clinical Laboratory Standards (NCCLS). Bacterial strains, adjusted at […] (equivalent to 0.5 McFarland), were used to inoculate nutrient agar plates. 9-mm diameter wells were punched into the solidified nutrient agar plates using sterile cork borer and 100 μl samples of the test compounds, dissolved in dimethyl formamide (DMF) at 20 mg/ml concentrations, were added and allowed to diffuse at 4 °C for 2 h. Subsequently, the plates were incubated overnight in an upright position at 37 °C. DMF was used as a negative control while ciprofloxacin and fluconazole (30 μg/ml) served as positive controls. After 24 h incubation, the diameters of the growth inhibition zones were recorded in mm. Data was expressed as mean ± standard deviation of three replicates.

K. pneumoniae ATCC 13883 [3] = assay: MIC determination, K. pneumoniae; format: cell-based, Klebsiella pneumoniae; conditions: serial dilutions, triplicate; for MIC: Klebsiella pneumoniae, ATCC13883
Procedure: as §1

P. aeruginosa ATCC 27953 [4] = assay: Agar well diffusion, P. aeruginosa; format: cell-based; conditions: Pseudomonas aeruginosa, ATCC27953; 100 μl of test compound 20 mg/ml in DMF; ciprofloxacin and fluconazole 30 μg/ml; 24 h; mean ± SD; read-out: diameters of inhibition zone, P. aeruginosa ATCC 27953
Procedure: as §2

B. subtilis ATCC 6633 [5] = assay: MIC determination, B. subtilis; format: cell-based, Bacillus subtilis; conditions: serial dilutions, triplicate; for MIC: Bacillus subtilis, ATCC6633
Procedure: as §1

B. cereus ATCC 6629 [6] = assay: Agar well diffusion, B. cereus; format: cell-based; conditions: Bacillus cereus, ATCC6629; 100 μl of test compound 20 mg/ml in DMF; ciprofloxacin and fluconazole 30 μg/ml; 24 h; mean ± SD; read-out: diameters of inhibition zone, B. cereus ATCC 6629
Procedure: as §2

K. pneumoniae ATCC 13883 [7] = assay: Agar well diffusion, K. pneumoniae; format: cell-based; conditions: Klebsiella pneumoniae, ATCC13883; 100 μl of test compound 20 mg/ml in DMF; ciprofloxacin and fluconazole 30 μg/ml; 24 h; mean ± SD; read-out: diameters of inhibition zone, K. pneumoniae ATCC 13883
Procedure: as §2

Cell viability MTT assay = format: cell-based; conditions: human, BJ1 cells (normal skin fibroblasts)
Procedure: Cell viability testing at 5 mg/ml was carried out by colorimetric MTT assay on human normal cell line BJ1 (skin fibroblasts) to investigate the toxicity of the most broad spectrum derivatives 9, 15, 16, 18, 19, 20 and 29 (Table 3). The viability of the cells treated with the aforementioned derivatives was more than 87% at 5 mg/ml concentration. This gives indication that the compounds are tolerated and nontoxic for human cells, as the cytotoxic dose was higher than the therapeutic dose on most of microorganisms. It is worth mentioning that the safe limit of the percent of dead cells is not an absolute value and could be more than 10% as reported in previous studies.
The most broad spectrum compounds were evaluated for their cytotoxic activity against BJ1 cell line using colorimetric MTT [3-(4,5-dimethylthiazol-2-yl)-2,5-diphenyltetrazolium bromide] assay.

P. aeruginosa ATCC 27953 [8] = assay: MIC determination, P. aeruginosa; format: cell-based, Pseudomonas aeruginosa; conditions: serial dilutions, triplicate; for MIC: Pseudomonas aeruginosa, ATCC27953
Procedure: as §1

C. albicans ATCC 10231 [9] = assay: Agar well diffusion, C. albicans; format: cell-based; conditions: Candida albicans, ATCC10231; 100 μl of test compound 20 mg/ml in DMF; ciprofloxacin and fluconazole 30 μg/ml; 24 h; mean ± SD; read-out: diameters of inhibition zone, C. albicans ATCC 10231
Procedure: as §2

C. albicans ATCC 10231 [10] = assay: MIC determination, C. albicans; format: cell-based, Candida albicans; conditions: serial dilutions, triplicate
Procedure: as §1

S. aureus ATCC 6538 = assay: Agar well diffusion, S. aureus; format: cell-based; conditions: Staphylococcus aureus, ATCC6538; 100 μl of test compound 20 mg/ml in DMF; ciprofloxacin and fluconazole 30 μg/ml; 24 h; mean ± SD; read-out: diameters of inhibition zone, S. aureus ATCC 6538
Procedure: as §2

melting point [°C]	Structure (SMILES)	zone of inhibition at 20000 µg/mL (B. subtilis ATCC 6633 [2]) [mm]	zone of inhibition at 20000 µg/mL (P. aeruginosa ATCC 27953 [4]) [mm]	zone of inhibition at 20000 µg/mL (K. pneumoniae ATCC 13883 [7]) [mm]	zone of inhibition at 20000 µg/mL (C. albicans ATCC 10231 [9]) [mm]	further results
78	CCN(CC)Cc1nc2ccccc2c(=O)n1N=Cc1ccccc1 [Compound 9, 3-(Benzylideneamino)-2-[(diethylamino)methyl]quinazolin-4(3H)-one]	15 ± 0.25	21 ± 0.36	12 ± 0.17	–	MIC (B. cereus ATCC 6629 [1]; Bacillus cereus, ATCC6629): 1000 mg/L (≈ 2.99 mM); MIC, B. cereus ATCC 6629 (B. cereus ATCC 6629 [1]): 1000 ± 0 mg/L (≈ 2.99 mM); MIC (K. pneumoniae ATCC 13883 [3]): 1500 ± 60 mg/L (≈ 4.49 mM); MIC (B. subtilis ATCC 6633 [5]): 2000 mg/L (≈ 5.98 mM); zone of inhibition at 20000 µg/mL (B. cereus ATCC 6629 [6]): 14 ± 0.09 mm; viability at 5 mg/ml (Cell viability MTT assay): 91.5 ± 2.21%; MIC (P. aeruginosa ATCC 27953 [8]): 2000 mg/L (≈ 5.98 mM); MIC, P. aeruginosa ATCC 27953 (P. aeruginosa ATCC 27953 [8]): 2000 ± 290 mg/L (≈ 5.98 mM)
124	CCN(CC)Cc1nc2ccccc2c(=O)n1N=Cc1ccc(Cl)cc1 [Compound 10, 3-[(4-Chlorobenzylidene)amino]-2-[(diethylamino)methyl]quinazolin-4(3H)-one]	–	–	15 ± 0.15	–	–
74	CCN(CC)Cc1nc2ccccc2c(=O)n1N=Cc1ccc(C)cc1 [Compound 11, 2-[(Diethylamino)methyl]-3-[(4-methylbenzylidene)amino]quinazolin-4(3H)-one]	14 ± 0.16	–	–	–	–
102 to 104	CCN(CC)Cc1nc2ccccc2c(=O)n1N=Cc1ccc(OC)cc1 [Compound 12, 2-[(Diethylamino)methyl]-3-[(4-methoxybenzylidene)amino]quinazolin-4(3H)-one]	–	18 ± 0.27	–	–	–
116	CCN(CC)Cc1nc2ccccc2c(=O)n1N=Cc1cc(OC)c(OC)c(OC)c1 [Compound 13, 2-[(Diethylamino)methyl]-3-[(3,4,5-trimethoxybenzylidene)amino]quinazolin-4(3H)-one]	–	20 ± 0.18	12 ± 0.07	12 ± 0.28	–
155	CCN(CC)Cc1nc2ccccc2c(=O)n1N=Cc1ccc([N+](=O)[O-])cc1 [Compound 14, 2-[(Diethylamino)methyl]-3-[(4-nitrobenzylidene)amino]quinazolin-4(3H)-one]	–	–	–	12 ± 0.37	–
156	Cc1ccc(C=Nn2c(CN3CCCC3)nc3ccccc3c2=O)cc1 [Compound 17, 3-[(4-Methylbenzylidene)amino]-2-(pyrrolidin-1-ylmethyl)quinazolin-4(3H)-one]	–	16 ± 0.22	–	–	–
98	O=c1c2ccccc2nc(CN2CCCCC2)n1N=Cc1ccccc1 [Compound 21, 3-(Benzylideneamino)-2-(piperidin-1-ylmethyl)quinazolin-4(3H)-one]	17 ± 0.14	–	12 ± 0.15	–	zone of inhibition at 20000 µg/mL (B. cereus ATCC 6629 [6]): 12 ± 0.16 mm
130	O=c1c2ccccc2nc(CN2CCCCC2)n1N=Cc1ccc(Cl)cc1 [Compound 22, 3-[(4-Chlorobenzylidene)amino]-2-(piperidin-1-ylmethyl)quinazolin-4(3H)-one]	10 ± 0.07	–	–	–	–
124	Cc1ccc(C=Nn2c(CN3CCCCC3)nc3ccccc3c2=O)cc1 [Compound 23, 3-[(4-Methylbenzylidene)amino]-2-(piperidin-1-ylmethyl)quinazolin-4(3H)-one]	–	–	–	11 ± 0.13	–
138	COc1ccc(C=Nn2c(CN3CCCCC3)nc3ccccc3c2=O)cc1 [Compound 24, 3-[(4-Methoxylbenzylidene)amino]-2-(piperidin-1-ylmethyl)quinazolin-4(3H)-one]	–	14 ± 0.21	12 ± 0.14	–	–
112 to 114	COc1cc(C=Nn2c(CN3CCCCC3)nc3ccccc3c2=O)cc(OC)c1OC [Compound 25, 2-(Piperidin-1-ylmethyl)-3-[(3,4,5-trimethoxybenzylidene)amino]quinazolin-4(3H)-one]	–	21 ± 0.17	14 ± 0.17	–	–
180 to 182	O=c1c2ccccc2nc(CN2CCCCC2)n1N=Cc1ccc([N+](=O)[O-])cc1 [Compound 26]	12 ± 0.11	–	11 ± 0.07	–	–
132	O=c1c2ccccc2nc(CN2CCOCC2)n1N=Cc1ccccc1 [Compound 27, 3-(Benzylideneamino)-2-(morpholinomethyl)quinazolin-4(3H)-one]	14 ± 0.15	–	14 ± 0.16	13 ± 0.09	–
140 to 142	O=c1c2ccccc2nc(CN2CCOCC2)n1N=Cc1ccc(Cl)cc1 [Compound 28, 3-[(4-Chlorobenzylidene)amino]-2-(morpholinomethyl)quinazolin-4(3H)-one]	12 ± 0.2	–	16 ± 0.18	–	–
128	Cc1ccc(C=Nn2c(CN3CCOCC3)nc3ccccc3c2=O)cc1 [Compound 29, 3-[(4-Methylbenzylidene)amino]-2-(morpholinomethyl)quinazolin-4(3H)-one]	14 ± 0.06	14 ± 0.16	20 ± 0.15	13 ± 0.07	MIC (K. pneumoniae ATCC 13883 [3]): 2500 mg/L (≈ 6.9 mM); MIC, K. pneumoniae ATCC 13883 (K. pneumoniae ATCC 13883 [3]): 2500 ± 500 mg/L (≈ 6.9 mM); MIC (B. subtilis ATCC 6633 [5]): 500 mg/L (≈ 1.38 mM); MIC, B. subtilis ATCC 6633 (B. subtilis ATCC 6633 [5]): 500 ± 60 mg/L (≈ 1.38 mM); MIC (C. albicans ATCC 10231 [10]; Candida albicans, ATCC10231): 5000 mg/L (≈ 13.8 mM); MIC, C. albicans ATCC 10231 (C. albicans ATCC 10231 [10]): 5000 ± 290 mg/L (≈ 13.8 mM); viability at 5 mg/ml (Cell viability MTT assay): 87.6 ± 3.61%; MIC (P. aeruginosa ATCC 27953 [8]): 1500 mg/L (≈ 4.14 mM)
138	COc1ccc(C=Nn2c(CN3CCOCC3)nc3ccccc3c2=O)cc1 [Compound 30, 3-[(4-Methoxylbenzylidene)amino]-2-(morpholinomethyl)quinazolin-4(3H)-one]	–	–	14 ± 0.15	–	zone of inhibition at 20000 µg/mL (S. aureus ATCC 6538): 12 ± 0.12 mm
155	COc1cc(C=Nn2c(CN3CCOCC3)nc3ccccc3c2=O)cc(OC)c1OC [Compound 31, 2-(Morpholinomethyl)-3-[(3,4,5-trimethoxybenzylidene)amino]quinazolin-4(3H)-one]	–	–	–	–	–
200	O=c1c2ccccc2nc(CN2CCOCC2)n1N=Cc1ccc([N+](=O)[O-])cc1 [Compound 32, 2-(Morpholinomethyl)-3-[(4-nitrobenzylidene)amino]quinazolin-4(3H)-one]	14 ± 0.27	18 ± 0.09	–	–	–
–	OC(Cn1cncn1)(Cn1cncn1)c1ccc(F)cc1F [Fluconazole, reference compound]	–	–	–	20 ± 0.18	–
